# Earlier results in patent publication US20110045550A1, “Fission Yeast Expressing Cytochrome P450 Reductase” (priority 2007, published 2011).
# Legend:
# [1] = target: human P-glycoprotein ATPases (ABCB1 subfamily) (Homo sapiens, UniProt P08183)
# [2] = pH=8.5
# Chain of human P-glycoprotein ATPases (ABCB1 subfamily) (P08183 whole entry): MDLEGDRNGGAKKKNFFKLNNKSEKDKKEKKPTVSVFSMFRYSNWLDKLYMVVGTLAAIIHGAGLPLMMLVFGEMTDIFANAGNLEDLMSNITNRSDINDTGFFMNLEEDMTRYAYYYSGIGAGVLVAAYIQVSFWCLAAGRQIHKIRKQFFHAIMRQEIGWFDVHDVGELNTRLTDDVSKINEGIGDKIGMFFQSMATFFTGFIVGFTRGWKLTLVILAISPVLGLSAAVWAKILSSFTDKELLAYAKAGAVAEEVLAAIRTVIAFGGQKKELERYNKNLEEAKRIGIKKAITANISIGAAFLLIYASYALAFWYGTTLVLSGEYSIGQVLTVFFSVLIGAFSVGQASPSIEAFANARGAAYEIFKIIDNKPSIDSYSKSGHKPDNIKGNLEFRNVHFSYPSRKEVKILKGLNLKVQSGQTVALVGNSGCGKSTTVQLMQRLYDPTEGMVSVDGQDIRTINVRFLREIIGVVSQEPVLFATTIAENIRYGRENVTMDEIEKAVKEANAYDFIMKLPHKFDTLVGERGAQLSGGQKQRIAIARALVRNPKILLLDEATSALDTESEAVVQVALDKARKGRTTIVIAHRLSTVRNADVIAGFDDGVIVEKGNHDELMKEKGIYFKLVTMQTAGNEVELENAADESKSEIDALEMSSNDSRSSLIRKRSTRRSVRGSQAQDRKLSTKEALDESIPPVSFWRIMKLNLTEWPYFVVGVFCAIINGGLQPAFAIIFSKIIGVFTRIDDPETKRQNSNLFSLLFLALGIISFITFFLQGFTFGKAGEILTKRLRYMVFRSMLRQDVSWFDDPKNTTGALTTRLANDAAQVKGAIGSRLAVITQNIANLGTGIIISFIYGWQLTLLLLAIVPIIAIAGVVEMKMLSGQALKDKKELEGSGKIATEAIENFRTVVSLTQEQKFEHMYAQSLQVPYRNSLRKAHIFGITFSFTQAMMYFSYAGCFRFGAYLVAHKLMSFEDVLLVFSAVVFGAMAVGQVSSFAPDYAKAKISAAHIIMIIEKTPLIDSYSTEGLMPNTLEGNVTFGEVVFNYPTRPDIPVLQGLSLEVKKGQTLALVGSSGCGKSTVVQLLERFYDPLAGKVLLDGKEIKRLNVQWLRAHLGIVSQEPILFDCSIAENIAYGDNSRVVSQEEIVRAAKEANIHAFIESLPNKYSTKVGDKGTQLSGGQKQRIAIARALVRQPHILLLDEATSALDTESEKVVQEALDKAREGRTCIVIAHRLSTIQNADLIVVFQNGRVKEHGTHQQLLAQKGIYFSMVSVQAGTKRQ
Structure (SMILES),substrate for human P-glycoprotein [1],solubility [2]
Cc1ncc2n1-c1ccc(Cl)cc1C(c1ccccc1F)=NC2 [midazolam],very good substrate,around 150 μM
CC(NC(C)(C)C)C(=O)c1cccc(Cl)c1 (stereo not drawn) [bupropion],weak substrate,
